Values quoted from earlier work in patent US20220183969A1, “OCULAR INSERT CONTAINING A GLUCOCORTICOID” (Ocular Therapeutix, Inc., priority 2020, published 2022).

Details: for Equivalent Dose: established equivalent oral dose; for Relative Potency: oral glucocorticoid potency with reference to cortisol

Row | Compound | Equivalent Dose | Relative Potency
1 | C[C@]12C=CC(=O)C=C1CC[C@@H]1[C@@H]2[C@@H](O)C[C@@]2(C)[C@H]1CC[C@]2(O)C(=O)CO [Prednisolone] | 5 mg | 4
2 | C[C@@H]1C[C@H]2[C@@H]3CCC4=CC(=O)C=C[C@]4(C)[C@@]3(F)[C@@H](O)C[C@]2(C)[C@@]1(O)C(=O)CO [Dexamethasone, 9-Fluor-11β,17,21-trihydroxy-16α-methyl-pregna-1,4-dien-3,20-dion] | 0.8 mg | 25-80
3 | C[C@]12C=CC(=O)C=C1CC[C@H]1[C@@H]3C[C@@H](O)[C@](O)(C(=O)CO)[C@@]3(C)C[C@H](O)[C@@]12F [Triamcinolone] | 4 mg | 5
4 | C[C@]12CCC(=O)C=C1CC[C@@H]1[C@@H]2[C@@H](O)C[C@@]2(C)[C@H]1CC[C@]2(O)C(=O)CO [Cortisol] | 20 mg | 1
